{
  "source": "patent US20150368715A1",
  "about": "“DIAGNOSTIC AND TREATMENT OF CHRONIC HEART FAILURE” (Institut National de la Sante et de la Recherche Medicale …, priority 2010, published 2015)",
  "type_in_all_cases": "cell-based, rat",
  "key": {"[1]": {"system": "AMPK", "experiment": "Western blot analysis of AMPK phosphorylation", "conditions": "ApoO+ cardiac myoblasts, with or without palmitate; FIG. 6G"}, "[2]": {"system": "caspase 3", "experiment": "Caspase 3 activity monitoring in cardiac myoblasts", "conditions": "ApoO+ cells incubated with palmitate, with or without added agent, FIG. 5A, 5L, 6E, 6F", "procedure": "Palmitate preparation and caspase 3 activity measurement were performed as previously described (Hickson-Bick, Buja et al. 2000; Hirota, Otabe et al. 2006)."}, "[3]": {"system": "H9c2 cardiac myoblasts", "experiment": "Oxygen flow measurement (cell respiration)", "conditions": "ApoO+ H9c2 cardiac myoblasts; CCCP 4 to 16 μM cumulative doses; FIG. 8A"}, "[4]": {"system": "H9c2 cardiac myoblasts", "experiment": "Transmission electron microscopy of palmitate treated cells", "conditions": "H9c2 (control) cardiac myoblasts treated with palmitate; not shown"}, "[5]": {"system": "long fatty acyl CoA synthetase", "experiment": "Palmitoyl-coA synthase activity in H9c2 cardiac myoblasts", "conditions": "control and ApoO+ H9c2 cardiac myoblasts; FIG. 7H"}},
  "data": [
    {"smiles": "NC(=O)c1ncn([C@@H]2O[C@H](CO)[C@@H](O)[C@H]2O)c1N", "note": "[AICAR, 5-Aminoimidazole-4-carboxyamide ribonucleoside]", "values": [
      {"measurement": "AMPK phosphorylation", "setting": "[1]", "value": "increased AMPK phosphorylation"},
      {"measurement": "caspase 3 activity", "setting": "[2]", "value": "significantly reduced"}
    ]},
    {"smiles": "N#CC(C#N)=NNc1cccc(Cl)c1", "note": "[CCCP, Carbonyl cyanide m-chlorophenyl hydrazone]", "values": [
      {"measurement": "oxygen consumption", "setting": "[3]", "value": "further increased"}
    ]},
    {"smiles": "CCCC[C@@H](C)[C@@H](OC(=O)C[C@@H](CC(=O)O)C(=O)O)[C@H](C[C@@H](C)C[C@H](O)CCCC[C@@H](O)C[C@H](O)[C@H](C)N)OC(=O)C[C@@H](CC(=O)O)C(=O)O", "note": "[Fumonisin B1]", "values": [
      {"measurement": "caspase 3 activity", "setting": "[2]", "value": "lowered caspase 3 activity"},
      {"measurement": "caspase 3 activity", "setting": "[2]; listed as fumonisine B", "value": "partially attenuated"}
    ]},
    {"smiles": "O=c1cc(N2CCOCC2)oc2c(-c3ccccc3)cccc12", "note": "[LY294002]", "values": [
      {"measurement": "caspase 3 activity", "setting": "[2]", "value": "no significant effect"}
    ]},
    {"smiles": "CCCCCCCCCCCCCCCC(=O)O", "note": "[palmitate]", "values": [
      {"measurement": "mitochondrial alteration by transmission electron microscopy", "setting": "[4]", "value": "no significant effect"}
    ]},
    {"smiles": "CCC/C=C/C/C=C/C=C/C=N/NN=O", "note": "[triacsin C]", "values": [
      {"measurement": "palmitoyl-coA activity", "setting": "[5]", "value": "inhibited"}
    ]}
  ]
}
